Results from paper PMC8063472, “Pharmacokinetics of five phthalides in volatile oil of Ligusticum sinense Oliv.cv. Chaxiong, and comparison study on physicochemistry and pharmacokinetics after being formulated into solid dispersion and inclusion compound” (BMC Complementary Medicine and Therapies, 2021).
Where two headings read alike, the source gives them in different places.

Columns and labels:
[1] = Pharmacokinetic study in rats (plasma LC-MS/MS) after iv or oral VOC, oral VOC-P188 or oral VOC-β-CD; assay type: in vivo, Sprague Dawley rats; conditions: for AUC(0-t) / MRT last / Tmax / half-life / Cmax / bioavailability: male, Sprague-Dawley, rat, plasma; for MRT last: read-out: MRT0-t; for half-life: read-out: t1/2β (converted)
Procedure: The intravenous injection solution was prepared by dissolving 0.15 g of VOC in 25 ml water containing 3 ml 10% Tween-80 as solubilizer. The oral solution was prepared by dissolving 0.35 g of VOC in 25 ml normal saline containing 3 ml 10% Tween-80 as solubilizer. The VOC-P188 solution was prepared by mixing VOC-P188 5 g in 25 ml water with magnetic stirring apparatus. The VOC-β-CD solution was prepared by mixing VOC-β-CD 3.5 g in 25 ml water with magnetic stirring apparatus.
Twenty-four male SD rats (220 ~ 250 g) were randomly divided into four groups, 6 in each group. After fasting for 12 h before administration, the rats in group 1 were given VOC by tail vein injection at a dose of 30 mg/Kg, the rats at second group were oral administration of VOC solution, the dosage was 120 mg/Kg based on the mass of VOC. The rats at groups 3 and 4 were given VOC-P188 and VOC-β-CD, respectively.
Blood samples (0.3 ml) were collected from the eyes at 0.08, 0.17, 0.33, 0.5, 1, 1.5, 2, 4, 6, 8, 12 and 24 h after administration, and they were immediately transferred into a heparinized Eppendorf (EP) tube. The blood samples were then centrifuged at 13,000 r/min for 10 min. The plasma samples were stored at − 80 °C for later analysis.
The thawed plasma sample (0.1 ml) was transferred to another EP tube and 20 μl of DL, 50 μl of 2% formic acid and 500 μl of methanol were added. The mixture was vortexed for 2 min, and centrifuged at 13000 r/min for 10 min. The supernatant was transferred into a clean EP tube, and evaporated to dryness under a stream of nitrogen at 40 °C. The residue was dissolved in 100 μl of methanol. The supernatant was injected into the HPLC system.
An HPLC system consisting of a solvent-delivery system LC-30 AD, an autosampler SIL-30 AC, a column oven CTO-30 AC, a solvent degasser DGU-20A3, and a controller CBM-20A from […] was used in the study. Separation was conducted using a Shim-pack GIST C18-AQ HP column (2.1 mm × 100 mm, 3 μm). The column oven was maintained at 35 °C. The mobile phase was 0.1% formic acid in water as mobile phase A and acetonitrile as mobile phase B. The linear gradient elution program was set according to preliminary tests: 45–60% B, 0–2 min; 60–65% B, 2–6 min; 65–95% B, 6–7 min; 95–45% B, 7–9 min and 45% B, 9–10 min, with the flow rate kept at 0.3 ml/min. The injection volume was set at 2 μl.
The MS analysis was performed on a 4500 QTRAP™ system from Applied Biosystems (AB Sciex) equipped with Turbo V sources and Turbo Ion Spray™ (TIS) interface. Electrospray ionization was performed in positive mode. Ion source: electrospray ion source (ESI source); detection method: multiple reaction monitoring (MRM); ion source temperature: 500 °C; desolvent gas temperature: 550 °C; desolvent gas flow rate: 800 l/h. The detection ion pair, retention time, declustering voltage and collision energy of each index component and internal standard were shown in Table 2.
The plasma SA, NBP, NOL, ZL and BP concentrations were evaluated using the equation from the standard curves that were run with each batch of samples. The plasma concentration-time data were analyzed with the Drug and Statistics 2.0 software package to determine the pharmacokinetic parameters. The observed Cmax value was obtained from the observed data and the observed AUC0 → t value was calculated using the trapezoidal rule. The absolute bioavailability of VOC and the relative bioavailability of VOC-P188 and VOC-β-CD were calculated, the formula for calculating absolute bioavailability (F1) and relative bioavailability (F2): F1=AUCpo×Div/AUCiv×Dpo×100% […]
Where AUC is the area under the temporal curve of blood drug concentration (μg/l*h), D is administration dosage (mg/kg); the subscripts iv and po are injection and oral administration, respectively; the subscript R is reference drug (VOC); the subscript T is solid dispersion or inclusion compound.

[2] = Stability test of VOC-P188 and VOC-β-CD (temperature, illumination); assay type: physicochemical
[3] = VOC iv 30 mg/kg, rat plasma, n = 6
[4] = VOC po 120 mg/kg, rat plasma, n = 6
[5] = VOC-P188 solid dispersion po vs VOC po, rats
[6] = VOC-P188 solid dispersion po, rat plasma, n = 6
[7] = VOC-β-CD inclusion compound po vs VOC po, rats
[8] = VOC-β-CD inclusion compound po, rat plasma, n = 6
[9] = iv, 30 mg/kg, VOC iv 30 mg/kg, rat plasma, n = 6
[10] = iv, 30 mg/kg, VOC iv 30 mg/kg, rat plasma, n = 6, read-out: Tmax
[11] = iv, 30 mg/kg, VOC iv (tail vein) 30 mg/kg, rat plasma, n = 6
[12] = po, 120 mg/kg, VOC po 120 mg/kg, rat plasma, n = 6
[13] = po, 120 mg/kg, VOC po 120 mg/kg, rat plasma, n = 6, read-out: Tmax
[14] = po, 120 mg/kg, VOC po vs VOC iv, rats, read-out: F1 (absolute bioavailability)
[15] = po, VOC-P188 and VOC-β-CD po, rats, read-out: bioavailability in the two preparations
[16] = po, VOC-P188 solid dispersion po, rat plasma, n = 6
[17] = po, VOC-P188 solid dispersion po, rat plasma, n = 6, read-out: Tmax
[18] = po, VOC-β-CD inclusion compound po, rat plasma, n = 6
[19] = po, VOC-β-CD inclusion compound po, rat plasma, n = 6, read-out: Tmax

| Compound | t1/2α [1, 3] [h] | t1/2α [1, 4] [h] | F2 (relative bioavailability) [1, 5] [%] | t1/2α [1, 6] | F2 (relative bioavailability) [1, 7] [%] | t1/2α [1, 8] | AUC(0-t) [1, 9] [ng·h/mL] | MRT last [1, 9] [min] | Tmax [1, 10] [min] | half-life [1, 9] [min] | Cmax [1, 11] [ng/mL] | AUC(0-t) [1, 12] [ng·h/mL] | Cmax [1, 12] [ng/mL] | MRT last [1, 12] [min] | Tmax [1, 13] [min] | half-life [1, 12] [min] | bioavailability [1, 14] [%] | bioavailability [1, 15] [%] | AUC(0-t) [1, 16] [ng·h/mL] | Cmax [1, 16] [ng/mL] | further results |
| --- | --- | --- | --- | --- | --- | --- | --- | --- | --- | --- | --- | --- | --- | --- | --- | --- | --- | --- | --- | --- | --- |
| CCCC[C@@H]1OC(=O)c2ccccc21 [NBP, N-butylphthalide, reference compound] | 0.06 ± 0.04 | 0.26 ± 0.10 | 197.67 | 2.82 ± 1.55^** h | 198.39 | 3.95 ± 1.96^** h | 54.6 ± 16.5 | 32.4 ± 13.2 | 4.98 | 15.6 ± 9 | 196 ± 64.5 | 36.1 ± 7.58 | 25.9 ± 8.3 | 162 ± 28.2 | 28.2 ± 4.2 | 39 ± 44.4 | < 25 | < 50 | 72.7 ± 9.8 | 23.5 ± 1.59 | Tmax ([1]; po, 120 mg/kg, after oral administration of VOC, rats, read-out: Tmax (time of peak concentration)): < 30 min; MRT last [1, 16]: 244 ± 27.6 min; Tmax [1, 17]: 19.2 ± 12 min; half-life [1, 16]: 188 ± 60.6 min; AUC(0-t) [1, 18]: 76.1 ± 24.6 ng·h/mL; Cmax [1, 18]: 22.4 ± 5.56 ng/mL; MRT last [1, 18]: 317 ± 62.4 min; Tmax [1, 19]: 49.8 ± 15.6 min; half-life [1, 18]: 263 ± 109 min |
| CCCC[C@@H]1OC(=O)C2=CCCC[C@H]21 [NOL, Neocnidilide] | 0.04 ± 0.04 | 0.46 ± 0.67 | 258.18 | 4.21 ± 4.29^* h | 218.01 | 3.21 ± 2.44 h | 505 ± 152 | 47.4 ± 10.2 | 4.98 | 18 ± 6.6 | 1380 ± 335 | 442 ± 45.2 | 223 ± 71.3 | 205 ± 34.2 | 10.8 ± 7.2 | 186 ± 131 | < 25 | < 50 | 1140 ± 63.9 | 244 ± 131 | MRT last [1, 16]: 457 ± 34.2 min; Tmax [1, 17]: 25.2 ± 27 min; half-life [1, 16]: 530 ± 110 min; AUC(0-t) [1, 18]: 945 ± 85 ng·h/mL; Cmax [1, 18]: 134 ± 24.3 ng/mL; MRT last [1, 18]: 490 ± 33 min; Tmax [1, 19]: 40.2 ± 15.6 min; half-life [1, 18]: 586 ± 163 min |
| CCCCC1OC(=O)C2=C1CCC=C2 (stereo not drawn) [SA, senkyunolide A] | 0.09 ± 0.05 | 1.31 ± 1.58 | 185.82 | 1.50 ± 1.59 h | 138.69 | 2.34 ± 1.24 h | 1370 ± 315 | 43.2 ± 4.8 | 4.98 | 46.8 ± 39.6 | 3430 ± 557 | 1260 ± 274 | 631 ± 310 | 251 ± 29.4 | 11.4 ± 6 | 227 ± 84 | < 25 | < 50 | 2360 ± 351 | 701 ± 349 | content decreased by ([2]; in VOC-P188, 60 °C for 10 days): 15.8%; content decreased by ([2]; in VOC-β-CD, 60 °C for 10 days): 9.0%; MRT last [1, 16]: 387 ± 57.6 min; Tmax [1, 17]: 12 ± 9.6 min; half-life [1, 16]: 434 ± 154 min; AUC(0-t) [1, 18]: 1830 ± 532 ng·h/mL; Cmax [1, 18]: 399 ± 68.3 ng/mL; MRT last [1, 18]: 373 ± 90.6 min; Tmax [1, 19]: 30 ± 15.6 min; half-life [1, 18]: 179 ± 34.2 min |
